# From article PMC5909423, “Antibiotic resistance ABCF proteins reset the peptidyl transferase centre of the ribosome to counter translational arrest” (Nucleic Acids Research, 2018)
# Target: T1, LsaA (Enterococcus faecalis, UniProt Q7WT47)
# T1 construct: gene lsa
# Conditions: 1 uM LsaA, 1 mM ATP, 1 uM lincomycin; indirect read-out
# T1 sequence (Q7WT47 entry or part of it): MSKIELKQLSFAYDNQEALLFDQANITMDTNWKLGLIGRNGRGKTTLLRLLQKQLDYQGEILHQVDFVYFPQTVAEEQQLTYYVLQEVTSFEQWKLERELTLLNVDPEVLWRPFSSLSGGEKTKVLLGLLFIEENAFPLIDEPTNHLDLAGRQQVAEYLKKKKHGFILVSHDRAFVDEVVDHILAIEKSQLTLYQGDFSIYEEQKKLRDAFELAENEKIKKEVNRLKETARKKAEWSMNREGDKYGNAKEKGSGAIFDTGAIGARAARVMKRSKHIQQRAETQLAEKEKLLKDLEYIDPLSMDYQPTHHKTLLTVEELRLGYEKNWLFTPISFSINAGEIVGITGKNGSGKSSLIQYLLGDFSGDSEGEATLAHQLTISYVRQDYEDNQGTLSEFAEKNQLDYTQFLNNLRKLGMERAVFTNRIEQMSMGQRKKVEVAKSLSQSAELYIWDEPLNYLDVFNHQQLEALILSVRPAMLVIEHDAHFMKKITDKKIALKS
compound,measurement,value
Nc1ncnc2c1ncn2[C@@H]1O[C@H](COP(=O)(O)OP(=O)(O)OP(=O)(O)O)[C@@H](O)[C@H]1O [ATP],ATP-dependent rescue of puromycin reaction of lincomycin-inhibited E. faecalis 7,in the absence of ATP LsaA has no effect
